Where no end group is shown, it is not given here.
Test system: RAW 264.7 macrophages
Assay: Cytotoxicity assay (MTT)
Format: cell-based, murine
Conditions: 48 h; for % Viability, Exp.1: replicate Exp.1; for % Viability, Exp.2: replicate Exp.2
Method: The murine macrophage cell line RAW264.7 (TIB-71) was obtained from American Type Culture Collection (ATCC; Manassas, VA, USA). RAW 264.7 cells were cultured in DMEM (HyClone^TM, Logan, UT, USA) supplemented with 10% (v/v) heat-inactivated fetal bovine serum (Gibco, Fisher Scientific, Göteborg, Sweden), 2 mM L-glutamine (PAA Laboratories GmbH, Pasching, Austria), 10 mM 4-(2-hydroxyethyl)-1-piperazineethanesulfonic acid (HyClone^TM, Logan, UT, USA), 100 U/mL penicillin, and 100 µg/mL streptomycin (PAA). RAW 264.7 cells were grown in a 5% CO2 at 37 °C.
The cytotoxic effect of the IsCT-Δ6-8 peptide was assessed using the tetrazolium-based 3-(4,5-dimethylthiazol-2-yl)-2,5-diphenyltetrazolium bromide (MTT) assay. RAW 264.7 cells at 3.5 × 10^5 cells were seeded in a 96-well microtiter plate and incubated at 37 °C for 1 h under 5% CO2. Then, the cells were treated with or without the IsCT-Δ6-8 peptide at concentrations ranging from 37.5 μM to 150 μM for 48 h at 37 °C under 5% CO2. After incubation, 20 µL of MTT (5 mg/mL) was added in each well, and the plate was incubated for another 3 h. The supernatant was then discarded, and 100 µL of DMSO was added to solubilize formazan crystals. The plate was subsequently read at OD540 nm using a BioTek Synergy HT microplate reader. The percent cell viability was calculated using the following equation:(2) % Cell viability=OD of treated cells/OD of untreated cells×100

For ILGKIIKSLF [IsCT-Δ6-8], the “% Viability, Exp.1” value (37.5 µM, 37 °C, 5% CO2, MTT, OD 540 nm) was 109.403%, the “% Viability, Exp.2” value (37.5 µM, MTT) was 94.438% and the “% Viability, Exp.1” value (75 µM, MTT) was 102.742%. The “% Viability, Exp.2” value (75 µM, MTT) was 96.302%, the “% Viability, Exp.1” value (150 µM, MTT) was 94.479% and the “% Viability, Exp.2” value (150 µM, MTT) was 100.171%. For the same sequence, the “Viability of RAW 264.7 macrophages (in words)” value (37.5–150 μM, MTT, compared with untreated control) was “not significantly changed”.
